According to patent publication US8003801B2 (The Scripps Research Institute, priority 2005, dated 2011):
Several values for one entry are separate records, joined by “and”; a condition that tells them apart may be missing. Equal values may be shown once. Read-outs that look alike come from different tables or passages of the source.

Tests used:
[1] = tested on: 1A9 human ovarian cancer cell line; experiment: 72 hour growth-inhibition (cytotoxicity) assay, 1A9 cells; assay type: cell-based; settings: for RAEpoB (relative activity), 1A9: ratio of IC50 of EpoB to IC50 of the tested compound in the concurrent assay
[2] = tested on: 1A9/PTX10, Taxol-resistant 1A9 cell line (β270 Phe→Val); experiment: 72 hour growth-inhibition (cytotoxicity) assay, 1A9/PTX10 cells; assay type: cell-based, human; settings: for RAEpoB (relative activity), 1A9/PTX10: ratio of IC50 of EpoB to IC50 of the tested compound in the concurrent assay; for RRp (relative resistance), 1A9/PTX10: IC50 of 1A9/PTX10 divided by IC50 of the parental cell line 1A9
[3] = tested on: 1A9/A8, EpoA-resistant 1A9 cell line (β274 Thr→Ile); experiment: 72 hour growth-inhibition (cytotoxicity) assay, 1A9/A8 cells; assay type: cell-based, human; settings: for RAEpoB (relative activity), 1A9/A8: ratio of IC50 of EpoB to IC50 of the tested compound in the concurrent assay; for RRp (relative resistance), 1A9/A8: IC50 of 1A9/A8 divided by IC50 of the parental cell line
[4] = tested on: KB-31 human epidermoid cancer cell line; experiment: 72 hour growth-inhibition (cytotoxicity) assay, KB-31 cells; assay type: cell-based
[5] = tested on: KB-8511, Taxol-resistant (Pgp-overexpression) KB cell line; experiment: 72 hour growth-inhibition (cytotoxicity) assay, KB-8511 cells
Protocol: In addition, further cytotoxicity studies were carried out using a pair of drug-sensitive parental human epidermoid carcinoma cells (KB-31) and its Taxol™-resistant Pgp-overexpressing subline (KB-5811).

[6] = tested on: A2780/AD10, drug-resistant clone of human ovarian carcinoma A2780 overexpressing P-glycoprotein; experiment: 72 hour growth-inhibition (cytotoxicity) assay, A2780/AD10 cells; assay type: cell-based; settings: for IC50: 72 hour growth inhibition, sulforhodamine-B staining, mean of 3-5 experiments ± SEM; for RRp (relative resistance), A2780/AD10: IC50 of A2780/AD10 divided by IC50 of the parental cell line
[7] = tested on: drug-sensitive and drug-resistant human cancer cell lines; experiment: Cytotoxicity assays across the panel of cell lines (summary in words); assay type: cell-based; settings: summary of Tables 1A-1C
[8] = Homo sapiens, 1A9, Table 2, tested epothilone, unit from Table 1A note a, read-out: IC50, 1A9 (Table 2)
[9] = Homo sapiens, 1A9/ptx-10, Table 2, tested epothilone, unit from Table 1A note a, read-out: IC50, 1A9/PTX10 (Table 2)
[10] = Homo sapiens, 1A9, Table 2, tested epothilone, unit from Table 1A note a, read-out: IC50, 1A9/A8 (Table 2)
[11] = Homo sapiens, KB 3-1, read-out: IC50, KB-31 (Table 2)
[12] = read-out: IC50, KB-5811 (Table 2), Table 2, tested epothilone, cell line KB-5811, unit from Table 1A note a
[13] = Homo sapiens, 1A9, 72 hour growth inhibition, sulforhodamine-B staining, mean of 3-5 independent experiments ± standard error of the mean, read-out: 1A9 IC50
[14] = Homo sapiens, 1A9/ptx-10, 72 hour growth inhibition, sulforhodamine-B staining, mean of 3-5 experiments ± SEM, read-out: 1A9/PTX10 IC50
[15] = Homo sapiens, 1A9, 72 hour growth inhibition, sulforhodamine-B staining, mean of 3-5 experiments ± SEM, read-out: 1A9/A8 IC50
[16] = Homo sapiens, KB 3-1, 72 h, read-out: KB-31 IC50
[17] = read-out: KB-8511 IC50, 72 hour growth inhibition, methylene blue staining, mean of 3-5 experiments ± SEM
[18] = 72 hour growth inhibition, sulforhodamine-B staining, mean of 3-5 independent experiments ± standard error of the mean, read-out: 1A9 IC50
[19] = 72 hour growth inhibition, sulforhodamine-B staining, mean of 3-5 experiments ± SEM, read-out: 1A9/PTX10 IC50
[20] = 72 hour growth inhibition, sulforhodamine-B staining, mean of 3-5 experiments ± SEM, read-out: 1A9/A8 IC50

Row | SMILES | IC50 [1, 13] | IC50 [2, 14] | RRp (relative resistance), 1A9/PTX10 [2] | IC50 [3, 15] | RRp (relative resistance), 1A9/A8 [3] | IC50 ([6]; Homo sapiens, A2780) | RRp (relative resistance), A2780/AD10 [6] | IC50 [4, 16] | IC50 [5, 17] | also measured
1 | CSc1nc(/C=C(\C)[C@@H]2C[C@@H]3C[C@]3(C)CCC[C@H](C)[C@H](O)[C@@H](C)C(=O)C(C)(C)[C@@H](O)CC(=O)O2)cs1 [Compound 4, reference compound] | – | – | – | – | – | – | – | – | – | IC50 [1, 8]: 0.1 nM; RAEpoB (relative activity), 1A9 [1]: 6.0; IC50 [2, 9]: 0.7 nM; RAEpoB (relative activity), 1A9/PTX10 [2]: 4.4; IC50 [3, 10]: 2.4 nM; RAEpoB (relative activity), 1A9/A8 [3]: 2.7; IC50 [4, 11]: 0.2 nM; IC50 [5, 12]: 0.12 nM
2 | CSCc1nc(/C=C(\C)[C@@H]2C[C@@H]3O[C@]3(C)CCC[C@H](C)[C@H](O)[C@@H](C)C(=O)C(C)(C)[C@@H](O)CC(=O)O2)cs1 [Compound 5] | 3.6 ± 1.4 nM | 43.3 ± 12 nM | 12.0 | 18.6 ± 11.3 nM | 5.2 | 82.2 ± 49.6 nM | 15.2 | 1.38 ± 0.05 nM | 1.97 ± 0.25 nM | cytotoxicity across the tested cell lines, in words [7]: less potent than EpoB, exhibited high potency against several of the tested cell lines
3 | CC(=O)SCc1nc(/C=C(\C)[C@@H]2C[C@@H]3O[C@]3(C)CCC[C@H](C)[C@H](O)[C@@H](C)C(=O)C(C)(C)[C@@H](O)CC(=O)O2)cs1 [Compound 6] | 5.4 ± 1.1 nM | 28.2 ± 9.3 nM | 5.2 | 49.8 ± 34.5 nM | 9.2 | 8.6 ± 3.3 nM | 45.3 | 1.18 ± 0.12 nM | 8.39 ± 1.37 nM | cytotoxicity across the tested cell lines, in words [7]: less potent than EpoB, exhibited high potency against several of the tested cell lines
4 | C/C(=C\c1nc2ccccc2s1)[C@@H]1C[C@@H]2O[C@]2(C)CCC[C@H](C)[C@H](O)[C@@H](C)C(=O)C(C)(C)[C@@H](O)CC(=O)O1 [Compound 7] | 0.19 ± 0.1 nM | 2.6 ± 2.5 nM | 13.7 | 0.7 ± 0.4 nM | 3.7 | 707 nM | 7.4 | 0.21 ± 0.07 nM | 0.08 ± 0.04 nM | IC50 [1, 8]: 0.19 nM; RAEpoB (relative activity), 1A9 [1]: 5.2; IC50 [2, 9]: 2.6 nM; RAEpoB (relative activity), 1A9/PTX10 [2]: 3.0; IC50 [3, 10]: 0.7 nM; RAEpoB (relative activity), 1A9/A8 [3]: 14.3; IC50 [4, 11]: 0.21 nM; cytotoxicity across the tested cell lines, in words [7]: excellent cytotoxicity across the range of cell lines, being more potent than EpoB; IC50 [5, 12]: 0.08 nM
5 | C/C(=C\c1c(I)ncn1C)[C@@H]1C[C@@H]2O[C@]2(C)CCC[C@H](C)[C@H](O)[C@@H](C)C(=O)C(C)(C)[C@@H](O)CC(=O)O1 [Compound 10] | > 750 nM | > 750 nM | – | > 750 nM | – | 1070 nM | 5.9 | > 1000 nM | > 1000 nM | –
6 | C/C(=C\c1cn(C)cn1)[C@@H]1C[C@@H]2O[C@]2(C)CCC[C@H](C)[C@H](O)[C@@H](C)C(=O)C(C)(C)[C@@H](O)CC(=O)O1 [Compound 11] | 181 ± 81.6 nM | > 750 nM | – | 150 nM | 0.8 | > 750 nM | – | 277 ± 122 nM | > 1000 nM | –
7 | C/C(=C\c1nc(Br)c(Br)n1C)[C@@H]1C[C@@H]2O[C@]2(C)CCC[C@H](C)[C@H](O)[C@@H](C)C(=O)C(C)(C)[C@@H](O)CC(=O)O1 [Compound 12] | > 750 nM | > 750 nM | – | > 750 nM | – | 574 nM | – | > 1000 nM | > 1000 nM | –
8 | CSc1nc(/C=C(\C)[C@@H]2C[C@@H]3O[C@]3(C)CCC[C@H](C)[C@H](O)[C@@H](C)C(=O)C(C)(C)[C@@H](O)CC(=O)O2)c(SC)n1C [Compound 13] | > 750 nM | > 750 nM | – | 574 nM | – | 1.3 ± 0.3 nM | 2.6 | 240 ± 34 nM | 247 ± 47.9 nM | –
9 | C/C(=C\c1nc(Cl)c2ncn(C)c2n1)[C@@H]1C[C@@H]2O[C@]2(C)CCC[C@H](C)[C@H](O)[C@@H](C)C(=O)C(C)(C)[C@@H](O)CC(=O)O1 [Compound 17] | 3.7 ± 1.5 nM | 13.6 ± 7.3 nM | 3.7 | 4 ± 2.5 nM | 1.1 | 46.3 ± 33.2 nM | 12.5 | 1.62 ± 0.22 nM | 20.2 ± 2.14 nM | –
10 | COc1nc(/C=C(\C)[C@@H]2C[C@@H]3O[C@]3(C)CCC[C@H](C)[C@H](O)[C@@H](C)C(=O)C(C)(C)[C@@H](O)CC(=O)O2)nc2c1ncn2C [Compound 18] | 3.7 ± 1.8 nM | 19.8 ± 10.6 nM | 5.4 | 2.2 ± 1.6 nM | 0.6 | 47.3 ± 36.5 nM | 47.3 | 0.15 ± 0.09 nM | 7.45 ± 0.81 nM | –
11 | CSc1nc(/C=C(\C)[C@@H]2C[C@@H]3O[C@]3(C)CCC[C@H](C)[C@H](O)[C@@H](C)C(=O)C(C)(C)[C@@H](O)CC(=O)O2)nc2c1ncn2C [Compound 19] | 1 ± 0.8 nM | 2 ± 1.5 nM | 2.0 | 2.8 ± 2.2 nM | 2.8 | 67 ± 9.8 nM | 16.8 | 0.36 ± 0.17 nM | 6.21 ± 0.86 nM | –
12 | C/C(=C\c1nnn(COCc2ccccc2)n1)[C@@H]1C[C@@H]2O[C@]2(C)CCC[C@H](C)[C@H](O)[C@@H](C)C(=O)C(C)(C)[C@@H](O)CC(=O)O1 [Compound 20] | 4 ± 0.3 nM | 49 ± 7 nM | 12.3 | 16.8 ± 9.2 nM | 4.2 | > 750 nM | – | 0.57 ± 0.08 nM | 4.44 ± 0.69 nM | –
13 | C/C(=C\c1csc(C)n1)[C@@H]1C[C@@H]2O[C@@H]2CCC[C@H](C)[C@H](O)[C@@H](C)C(=O)C(C)(C)[C@@H](O)CC(=O)O1 [EpoA, reference compound] | – | – | 2.1 | – | 17.1 | – | 25.7 | – | – | IC50 [1, 18]: 2.4 ± 2.6 nM; IC50 [2, 19]: 5.1 ± 2.6 nM; IC50 [3, 20]: 41 ± 7.3 nM; IC50 [6]: 25.4 ± 8.6 nM
14 | C/C(=C\c1csc(C)n1)[C@@H]1C[C@@H]2O[C@]2(C)CCC[C@H](C)[C@H](O)[C@@H](C)C(=O)C(C)(C)[C@@H](O)CC(=O)O1 [EpoB, reference compound] | – | – | 7.9 | – | 10.1 | – | 15.7 | – | 0.39 ± 0.02 nM | IC50 [1, 18]: 0.99 ± 0.8 nM; IC50 ([1]; read-out: EpoB (IC50 in the concurrent assay), 1A9, Table 2, EpoB determined concurrently with the epothilone, unit from Table 1A note a): 0.3 nM and 0.6 nM; IC50 [2, 19]: 7.8 ± 4.6 nM; IC50 ([2]; read-out: EpoB (IC50 in the concurrent assay), 1A9/PTX10, Table 2, EpoB determined concurrently with the epothilone): 3.7 nM and 3.1 nM; IC50 [3, 20]: 10 ± 1.4 nM; IC50 ([3]; read-out: EpoB (IC50 in the concurrent assay), 1A9/A8, Table 2, EpoB determined concurrently with the epothilone): 10 nM and 6.5 nM; IC50 [6]: 56.5 ± 23.3 nM; IC50 ([4]; 72 hour growth inhibition, methylene blue staining, mean of 3-5 experiments ± SEM, read-out: KB-31 IC50): 0.42 ± 0.03 nM; IC50 ([4]; read-out: EpoB (IC50 in the concurrent assay), KB-31, Table 2, EpoB determined concurrently with the epothilone): 0.19 nM
15 | CC(=O)O[C@H]1C(=O)[C@@]2(C)[C@H]([C@H](OC(=O)c3ccccc3)[C@]3(O)C[C@H](OC(=O)[C@H](O)[C@@H](NC(=O)c4ccccc4)c4ccccc4)C(C)=C1C3(C)C)[C@]1(OC(C)=O)CO[C@@H]1C[C@@H]2O [Taxol ™, reference compound] | – | – | – | – | – | > 150 nM | – | – | 1130 ± 74 nM | IC50 ([4]; Homo sapiens, KB 3-1, 72 hour growth inhibition, methylene blue staining, mean of 3-5 experiments ± SEM, read-out: KB-31 IC50): 6.08 ± 1.19 nM
16 | CC(=O)O[C@@]12CO[C@@H]1C[C@H](O)[C@@]1(C)C(=O)[C@H](O)C3=C(C)[C@@H](OC(=O)[C@H](O)[C@@H](NC(=O)OC(C)(C)C)c4ccccc4)C[C@@](O)([C@@H](OC(=O)c4ccccc4)[C@H]21)C3(C)C [Taxotere ™, reference compound] | 1.5 ± 1.1 nM | 32 ± 6.8 nM | 21.3 | 0.8 ± 0.2 nM | 0.5 | 29.4 ± 5.4 nM | 12.3 | – | – | –
